Experimental data as given in ChEMBL document CHEMBL5380796, “Small Molecular Mimetics of Antimicrobial Peptides as a Promising Therapy To Combat Bacterial Resistance” (J Med Chem, 2023).
Converted amounts (≈) assume the structure as drawn. Each block holds one compound with its values, some of them ahead of it. Non-standard residues stand in square brackets, D forms with d. Residues, ends and D or L forms follow the SMILES beside them. Dip = N[C@H](C(=O)O)C(c1ccccc1)c1ccccc1; 2Nal = N[C@@H](Cc1ccc2ccccc2c1)C(=O)O

What was measured:
Staphylococcus aureus [1] = assay: Antibacterial activity against Staphylococcus aureus assessed as bacterial growth inhibition; assay type: functional
Escherichia coli [2] = assay: Antibacterial activity against Escherichia coli assessed as bacterial growth inhibition; assay type: functional
Micrococcus luteus = assay: Antibacterial activity against Micrococcus luteus DSM 1790 assessed as bacterial growth inhibition by microdilution assay; assay type: functional
Staphylococcus aureus [3] = assay: Antibacterial activity against Staphylococcus aureus ATCC 25923 assessed as bacterial growth inhibition by microdilution assay; assay type: functional
Staphylococcus aureus [4] = assay: Antibacterial activity against Staphylococcus aureus ATCC 25923 assessed as bacterial growth inhibition; assay type: functional
Staphylococcus aureus [5] = assay: Antibacterial activity against Staphylococcus aureus assessed as bacterial growth inhibition measured after 24 hrs by CLSI based micro broth double dilution method; assay type: functional
Escherichia coli [6] = assay: Antibacterial activity against Escherichia coli assessed as bacterial growth inhibition measured after 24 hrs by CLSI based micro broth double dilution method; assay type: functional
Staphylococcus aureus [7] = assay: Antibacterial activity against methicillin-resistant Staphylococcus aureus ATCC 33591 assessed as bacterial growth inhibition; assay type: functional
Pseudomonas aeruginosa [8] = assay: Antibacterial activity against Pseudomonas aeruginosa ATCC 27853 assessed as bacterial growth inhibition; assay type: functional; conditions: ATCC27853
Escherichia coli [9] = assay: Antibacterial activity against Escherichia coli ATCC 25922 assessed as bacterial growth inhibition; assay type: functional
Clostridioides difficile = assay: Antibacterial activity against Clostridium difficile UK6 assessed as bacterial growth inhibition; assay type: functional
Klebsiella pneumoniae [10] = assay: Antibacterial activity against Klebsiella pneumoniae ATCC 13383 assessed as bacterial growth inhibition; assay type: functional
[11] = test system: Staphylococcus epidermidis; assay: Antibacterial activity against methicillin-resistant Staphylococcus epidermidis RP62A assessed as bacterial growth inhibition; assay type: functional
Enterococcus = assay: Antibacterial activity against […] assessed as bacterial growth inhibition; assay type: functional
Escherichia coli [12] = assay: Antibacterial activity against Escherichia coli ATCC 25922 assessed as bacterial growth inhibition incubated for 12 to 16 hrs by microtiter plate reader based analysis; assay type: functional; conditions: time 12-16 hrs
Pseudomonas aeruginosa [13] = assay: Antibacterial activity against Pseudomonas aeruginosa ATCC 27853 assessed as bacterial growth inhibition incubated for 12 to 16 hrs by microtiter plate reader based analysis; assay type: functional; conditions: time 12-16 hrs
Staphylococcus aureus [14] = assay: Antibacterial activity against methicillin-resistant Staphylococcus aureus ATCC 33592 assessed as bacterial growth inhibition incubated for 12 to 16 hrs by microtiter plate reader based analysis; assay type: functional; conditions: time 12-16 hrs
[15] = test system: Staphylococcus epidermidis; assay: Antibacterial activity against methicillin-resistant Staphylococcus epidermidis RP62A assessed as bacterial growth inhibition incubated for 12 to 16 hrs by microtiter plate reader based analysis; assay type: functional; conditions: time 12-16 hrs
Enterococcus faecalis = assay: Antibacterial activity against vancomycin- resistant Enterococcus faecalis ATCC 700802 assessed as bacterial growth inhibition incubated for 12 to 16 hrs by microtiter plate reader based analysis; assay type: functional; conditions: ATCC700802, time 12-16 hrs
[16] = Hemolytic activity in human RBC incubated for 10 mins by absorbance based analysis; assay type: toxicity, cell-based, Erythrocyte; conditions: red blood cells (erythrocytes)
Pseudomonas aeruginosa [17] = assay: Antibacterial activity against Pseudomonas aeruginosa assessed as bacterial growth inhibition; assay type: functional
Klebsiella pneumoniae [18] = assay: Antibacterial activity against Klebsiella pneumoniae assessed as bacterial growth inhibition; assay type: functional
[19] = Cytotoxicity against mouse 3T3 cells assessed as reduction in cell viability; assay type: toxicity, cell-based; conditions: NIH3T3 cells
[20] = Cytotoxicity against human HepG2 cells assessed as reduction in cell viability; assay type: toxicity, cell-based
Staphylococcus aureus [21] = assay: Antibacterial activity against methicillin-resistant Staphylococcus aureus assessed as bacterial growth inhibition by broth microdilution method; assay type: functional
Escherichia coli [22] = assay: Antibacterial activity against Escherichia coli assessed as bacterial growth inhibition by broth microdilution method; assay type: functional

- MIC (Staphylococcus aureus [1]): 2 µg/mL (≈ 2.27 µM)
Compound: CC(C)CCOC(=O)[C@H](CC(C)C)NC(=O)[C@@H](CCCNC(=N)N)NC(=O)[C@@H](CCCCN)NC(=O)COc1ccc2ccccc2c1-c1c(OCCC(C)C)ccc2ccccc12

- MIC (Staphylococcus aureus [1]): 2.5 µg/mL (≈ 4.05 µM)
- MIC (Escherichia coli [2]): 10 µg/mL (≈ 16.2 µM)
Compound: CC(C)(C)c1cc(C(C)(C)C)c2[nH]c(C(C)(C)C)c(C[C@H](N)C(=O)N[C@@H](CCCNC(=N)N)C(=O)NCc3ccccc3)c2c1

- MIC (Staphylococcus aureus [1]): 5 µg/mL (≈ 7.15 µM)
- MIC (Escherichia coli [2]): 20 µg/mL (≈ 28.6 µM)
Compound: COC(=O)[C@H](CCCNC(=N)N)NC(=O)[C@H](Cc1c(C(C)(C)C)[nH]c2c(C(C)(C)C)cc(C(C)(C)C)cc12)NC(=O)[C@@H](N)CCCNC(=N)N

- MIC (Micrococcus luteus): 1.9 µg/mL
- MIC (Staphylococcus aureus [3]): 1.9 µg/mL
- MIC (Staphylococcus aureus [4]): 1.9 µg/mL (≈ 2.18 µM)
Compound: CC(C)(C)c1ccc(CC(N)C(=O)NC(CCCNC(=N)N)C(=O)Nc2cc(NC(=O)C(CCCNC(=N)N)NC(=O)C(N)Cc3ccc(C(C)(C)C)cc3)cc(C(N)=O)c2)cc1 (centres undefined)

- MIC (Staphylococcus aureus [5]): 16 µg/mL
- MIC (Escherichia coli [6]): 16 µg/mL
Compound: CCCOc1c2cc(C[N+](C)(C)C)cc1Cc1cc(C[N+](C)(C)C)cc(c1OCCC)Cc1cc(C[N+](C)(C)C)cc(c1OCCC)Cc1cc(C[N+](C)(C)C)cc(c1OCCC)C2

Compound: CCCCCCN1C(=N)N(CC(=O)Nc2cccc(NC(=O)CN3C[C@H](Cc4ccccc4)N(CCCCCC)C3=N)c2)C[C@@H]1Cc1ccccc1
- MIC (Staphylococcus aureus [7]): 0.16 µg/mL (≈ 0.226 µM)
- MIC (Pseudomonas aeruginosa [8]): 6 µg/mL (≈ 8.49 µM)
- MIC (Escherichia coli [9]): 1.5 µg/mL (≈ 2.12 µM)
- MIC (Clostridioides difficile): 1 µg/mL (≈ 1.41 µM)
- MIC (Klebsiella pneumoniae [10]): 1.5 µg/mL (≈ 2.12 µM)
- MIC [11]: 0.75 µg/mL (≈ 1.06 µM)
- MIC (Enterococcus): 0.75 µg/mL (≈ 1.06 µM)

Compound: CCCCCCCCCCCCCCCC(=O)N[C@@H](CCCCN)C(=O)N[C@@H](Cc1ccccc1)CN(CC(N)=O)C(=O)CCCN
- MIC (Escherichia coli [12]): 4 µg/mL (≈ 6.07 µM)
- MIC (Pseudomonas aeruginosa [13]): 2 µg/mL (≈ 3.04 µM)
- MIC (Staphylococcus aureus [14]): 2 µg/mL (≈ 3.04 µM)
- MIC [15]: 2 µg/mL (≈ 3.04 µM)
- MIC (Enterococcus faecalis): 2 µg/mL (≈ 3.04 µM)
- HC50 at 10 min [16]: 150 µg/mL

- MIC (Staphylococcus aureus [1]): 32 µg/mL (≈ 25.4 µM)
- MIC (Escherichia coli [2]): 64 µg/mL (≈ 50.8 µM)
- MIC (Pseudomonas aeruginosa [17]): 256 µg/mL (≈ 203 µM)
Compound: CC(C)NC(=O)N[C@H](CNC(=O)N[C@@H](CCCCN)CNC(=N)N[C@H](CNC(=O)N[C@H](CNC(=O)N[C@@H](CCCCN)CNC(=O)N[C@H](CNC(=O)N[C@@H](CCCCN)CNC(N)=O)Cc1c[nH]c2ccccc12)C(C)C)Cc1c[nH]c2ccccc12)C(C)C

- MIC (Staphylococcus aureus [1]): 12.5 µg/mL (≈ 12.8 µM)
- MIC (Escherichia coli [2]): 12.5 µg/mL (≈ 12.8 µM)
Compound: CC(C)(C)c1cc(NC(=O)c2cc(OCCN)cc(C(=O)Nc3cc(C(C)(C)C)cc(NC(=O)[C@H](N)CCCNC(=N)N)c3SCCN)c2)c(SCCN)c(NC(=O)[C@H](N)CCCNC(=N)N)c1

- MIC (Escherichia coli [2]): 19 µg/mL (≈ 25.2 µM)
- MIC (Klebsiella pneumoniae [18]): 66 µg/mL (≈ 87.4 µM)
Compound: CC(=O)c1cccc(C(=O)Nc2cc(C(C)(C)C)cc(NC(=O)c3cccc(C(=O)Nc4cc(C(C)(C)C)cc(N)c4SCCN)c3)c2SCCN)c1

- MIC (Staphylococcus aureus [1]): 15 µg/mL (≈ 21.5 µM)
Compound: COC(=O)[C@@H]1CCCCc2cc3ccccc3c(c2OC)-c2c(OC)c(cc3ccccc23)CC(NC(C)=O)C(=O)N[C@H](CCCCN)C(=O)N1 (some centres undefined)

- MIC (Staphylococcus aureus [1]): 0.2 µg/mL (≈ 0.205 µM)
- MIC (Escherichia coli [2]): 3.1 µg/mL (≈ 3.18 µM)
- MIC (Pseudomonas aeruginosa [17]): 13 µg/mL (≈ 13.3 µM)
Compound: COc1cc(OC)c(C(=O)Nc2cc(C(F)(F)F)cc(NC(=O)CCCCNC(=N)N)c2SCCN)cc1C(=O)Nc1cc(C(F)(F)F)cc(NC(=O)CCCCNC(=N)N)c1SCCN
- EC50 [19]: > 2000 µg/mL
- EC50 [20]: > 2000 µg/mL

Compound: N=C(N)NCCC[C@@H]1NC(=O)[C@H](CCCNC(=N)N)NC(=O)[C@H](CCCNC(=N)N)NC(=O)[C@H](Cc2ccc3ccccc3c2)NC(=O)[C@H](Cc2ccc3ccccc3c2)NC(=O)[C@H](Cc2ccc3ccccc3c2)NC(=O)[C@H](CCCNC(=N)N)NC1=O (cyclo(RRRR[2Nal][2Nal][2Nal]))
- MIC (Staphylococcus aureus [21]): 3.1 µg/mL (≈ 2.55 µM)
- MIC (Escherichia coli [22]): 12.5 µg/mL (≈ 10.3 µM)

Compound: N=C(N)NCCC[C@@H]1NC(=O)[C@H](CCCNC(=N)N)NC(=O)[C@H](CCCNC(=N)N)NC(=O)[C@H](C(c2ccccc2)c2ccccc2)NC(=O)[C@H](C(c2ccccc2)c2ccccc2)NC(=O)[C@H](C(c2ccccc2)c2ccccc2)NC(=O)[C@H](CCCNC(=N)N)NC1=O (cyclo(RRRR[Dip][Dip][Dip]))
- MIC (Staphylococcus aureus [21]): 3.1 µg/mL (≈ 2.39 µM)
- MIC (Escherichia coli [22]): 12.5 µg/mL (≈ 9.66 µM)

- MIC (Staphylococcus aureus [1]): 2.5 µg/mL (≈ 3.17 µM)
- MIC (Escherichia coli [2]): 7.5 µg/mL (≈ 9.52 µM)
Compound: CC(C)(C)c1cc(C(C)(C)C)c2[nH]c(C(C)(C)C)c(C[C@H](NC(=O)[C@@H](N)CCCNC(=N)N)C(=O)N[C@@H](CCCNC(=N)N)C(=O)NCCc3ccccc3)c2c1 [LTX-109]

- MIC (Staphylococcus aureus [1]): 10 µg/mL
- MIC (Escherichia coli [2]): 15 µg/mL
Compound: H-WRWRW-NH2
